According to the NIST ThermoML archive (doi:10.1021/je060096y):
± gives the expanded uncertainty stated by the source.

Conditions: for mass density: 298.15 K, 101.33 kPa, Liquid, Pycnometric method; for Normal melting temperature: Crystal; for Normal melting temperature / Glass transition temperature: DTA

| Structure (SMILES) | mass density [kg/m3] | Normal melting temperature [°C] | Glass transition temperature [°C] |
| --- | --- | --- | --- |
| CCCCCCCCn1cc[n+](C)c1.O=S(=O)([O-])C(F)(F)F [1-octyl-3-methylimidazolium trifluoromethanesulfonate] | 1120 ± 20 | 5.00 ± 2 | -80.00 ± 2 |
| CCCCCCCCn1cc[n+](C)c1.N#C[N-]C#N [3-methyl-1-octylimidazolium dicyanamide] | 1000 ± 20 | -5.00 ± 2 | -89.00 ± 2 |
| CCCCCCCCn1cc[n+](C)c1.O=S(=O)([N-]S(=O)(=O)C(F)(F)F)C(F)(F)F | 1310 ± 20 | – | -86.00 ± 2 |
| CCCC[n+]1ccc(C)cc1.O=S(=O)([O-])C(F)(F)F [1-butyl-4-methylpyridinium trifluoromethanesulfonate] | 1170 ± 20 | 38.00 ± 2 | -68.00 ± 2 |
| CCCCn1cc[n+](C)c1.O=S(=O)([O-])C(F)(F)F [1-butyl-3-methylimidazolium trifluoromethanesulfonate] | – | 15.00 ± 2 | – |
| CCCC[n+]1ccc(C)cc1.O=S(=O)([N-]S(=O)(=O)C(F)(F)F)C(F)(F)F | 1350 ± 20 | 10.00 ± 2 | -80.00 ± 2 |
| CCCC[n+]1ccc(C)cc1.O=S(=O)([O-])C(F)(F)C(F)(F)C(F)(F)C(F)(F)F | – | 70.00 ± 2 | -34.00 ± 2 |
| CCCCCCCCn1cc[n+](C)c1.O=S(=O)([O-])C(F)(F)C(F)(F)C(F)(F)C(F)(F)F [1-methyl-3-octylimidazolium perfluorobutanesulfonate] | 1330 ± 20 | 32.00 ± 2 | -86.00 ± 2 |
| CCCC[n+]1ccn(C)c1.O=S(=O)([N-]S(=O)(=O)C(F)(F)F)C(F)(F)F | – | -4.00 ± 2 | – |
